System: NGN3-HA overexpressed in 293T cells
Assay: Western blot analysis of overexpressed NGN3-HA in 293T cells upon GSK3 inhibitor
Format: cell-based
Details: HEK293T cells overexpressing NGN3-HA, treated with GSK3β inhibitor; Western blot (FIG. 6b)
Excerpt: (A) Schematic representation of the proposed mechanism of NGN3 degradation by Fbw7. (B) Western Blot analysis of overexpressed NGN3-HA in 293T cells upon GSK3 inhibitor. (C) Schematic representation of NGN3 GSK3 phosphorylation residues and the different NGN3 phospho-mutant construct generated. (D) NGN3-HA/Fbw7-Flag Immunoprecipitation assay using the different NGN3 constructs indicated in C. (E) Western Blot analysis of NGN3 in cells overexpressing the different NGN3 construct indicated in C. HEK293T cells were cultured in DMEM and 10% FBS. Cells were plated at subconfluence and transfected with Lipofectamine Reagent (Invitrogen) following the manufacturer instructions. HEK293T cells lysates or tissues were homogenized in RIPA lysis buffer supplemented with protease inhibitor (Sigma). Immunoblots were carried out as previously described^4. The gels were transferred to nitrocellulose membranes, and the membranes were immunoblotted with various antibodies as indicated: anti-NGN3, anti-flag, anti-HA, and anti-Myc. The conversion of pancreatic ductal cells into β-cells observed in the RFY mice in vivo could be due to up-regulation of substrates involved in beta cell neogenesis in the adult pancreas. […] To test whether Fbw7 had any effect on NGN3 protein stability (see FIG. 6a), a set of in vitro experiments were conducted. […]

Cn1cc(C2=C(c3ccc(Cl)cc3Cl)C(=O)NC2=O)c2ccccc21 [SB216763]
NGN3 protein stability: increased

Reference: patent US20150322406A1, “METHOD FOR REPROGRAMMING SOMATIC CELLS TO PANCREATIC BETA CELLS” (CANCER RESEARCH TECHNOLOGY LIMITED, priority 2012, published 2015)
